{
  "source": "patent US12139505B2",
  "about": "“Compositions useful in therapy of autophagy-related pathologies, and methods of making and using the same” (The University of Toledo, priority 2017, dated 2024)",
  "key": {"[1]": {"tested_on": "d42-Gal4;UAS-nSyb-GFPxUAS-C9orf72polyGR36 flies", "assay": "Fly sleep behavior, C9orf72 ALS model", "format": "in vivo, Drosophila melanogaster", "procedure": "The base for the food was a cornmeal agar product, Nutri-fly BF (Genesee Scientific, Box of 10, 1-liter bags, Cat #66-112). In a 2 L beaker, 1 L of ultrapure water was heated to […], with the stir bar speed set to 600. To the beaker, one bag of Nutri-fly BF was added in small portions. The beaker was covered to maintain temperature (monitored with an inserted thermometer) while stirring as rapidly as possible until the temperature reached 97° C. The food was stirred at this temperature for 10 minutes using a wooden spoon/spatula, then allowed to cool to approximately 65° C. with continuous stirring (magnetic bar). At 65° C., while maintaining constant stirring, 12 mL of Tegosept was added followed by 7 mL of propionic acid solution. To be used as fly maintenance food, the food was allowed to cool to 55° C. and 4 mL of the food was aliquoted (to a depth of approximately 1 inch) into individual vials with mity drosophila plugs (VWR #75813-162 and #10054-506). For use as a drug delivery vehicle, the food was allowed to cool to room temperature while covered with aluminum foil, then sealed with parafilm stored at 4° C. To prepare the food for drug delivery, the food was homogenized at room temperature with an immersion blender. To prepare the drug-infused-food, about half of the calculated food, accurately measured, was added to a 250 mL beaker, followed by the drug (no carrier solvent is used). The drug was then covered with the rest of the food and the contents of the beaker were thoroughly mixed with an overhead mixer (with shroud removed) until the drug was distributed homogeneously within the food. The food was then distributed in 4.00 g aliquots to the vials with plugs (described above). The food-containing vials were centrifuged in 50 mL tubes at an appropriate speed (approximately 1000 to 1400 g) to just force the “drug food” to the bottom of the feeding vial. The vials were closed with the cotton mity plug until use.\nTest flies were transferred individually, under CO2 anesthesia, into 5 mm×65 mm (outside diameter×length) polycarbonate recording tubes with either minimal media or normal fly food on one end and yarn plugs on the other. Sleep parameters were continuously evaluated using the TriKinetics Drosophila activity monitoring system. Sleep is defined as 5 min or more of continuous inactivity, the minimum amount of time to qualify as a single sleep bout. Zeitgeber time (ZT) 0 is defined as the time of lights on and ZT12 is defined as the time of lights off. Mobility (activity) was also monitored and data tabulated based on the number of beam counts and diurnal variations were calculated. The sleep and mobility data were collected and analyzed."}, "[2]": {"tested_on": "gmr-Gal4;UAS-C9orf72polyGR36 flies", "assay": "Fly eye neurodegeneration assay, C9orf72 ALS model", "format": "in vivo, Drosophila melanogaster", "procedure": "The base for the food was a cornmeal agar product, Nutri-fly BF (Genesee Scientific, Box of 10, 1-liter bags, Cat #66-112). In a 2 L beaker, 1 L of ultrapure water was heated to […], with the stir bar speed set to 600. To the beaker, one bag of Nutri-fly BF was added in small portions. The beaker was covered to maintain temperature (monitored with an inserted thermometer) while stirring as rapidly as possible until the temperature reached 97° C. The food was stirred at this temperature for 10 minutes using a wooden spoon/spatula, then allowed to cool to approximately 65° C. with continuous stirring (magnetic bar). At 65° C., while maintaining constant stirring, 12 mL of Tegosept was added followed by 7 mL of propionic acid solution. To be used as fly maintenance food, the food was allowed to cool to 55° C. and 4 mL of the food was aliquoted (to a depth of approximately 1 inch) into individual vials with mity drosophila plugs (VWR #75813-162 and #10054-506). For use as a drug delivery vehicle, the food was allowed to cool to room temperature while covered with aluminum foil, then sealed with parafilm stored at 4° C. […] To prepare the drug-infused-food, about half of the calculated food, accurately measured, was added to a 250 mL beaker, followed by the drug (no carrier solvent is used). […]"}},
  "note": "Entries after “also recorded” stand apart in the source; their conditions may differ.",
  "data": [
    {"smiles": "CCCCCCC1=C(P(=O)(O)O)N[C@H](C(=O)OCC)CS1", "note": "[2-n-hexyl-LKE-P]", "values": [
      {"measurement": "daytime sleeping time of control flies", "setting": "[1]; d42-Gal4: UAS-nSyb-GFPxUAS-W1118 control flies", "value": "did not change the daytime sleeping time of control flies"},
      {"measurement": "number of sleep bouts during the day", "setting": "[1]; polyGR36 in motor neurons", "value": "decreased the number of sleep bouts during the day"},
      {"measurement": "total sleep time", "setting": "[1]; polyGR36 in motor neurons", "value": "increased total sleep time"},
      {"measurement": "daytime sleepiness / daytime sleeping time of mutant flies", "setting": "[1]; polyGR36 in motor neurons, drug in food throughout development", "value": "decreased the daytime sleeping time of mutant flies; also recorded: rescued the daytime sleepiness"},
      {"measurement": "failure to eclose from the pupa", "setting": "[2]; GR dipeptides at repeat number of 100 in the eyes", "value": "not able to rescue this phenotype"},
      {"measurement": "eye phenotype", "setting": "[2]; polyGR36 in eyes, 1 and 2 mM in food throughout lifespan", "value": "alleviate the eye phenotype in a concentration-dependent manner"}
    ]}
  ]
}
